According to patent US20100003228A1, “T-CELL VACCINE” (priority 2006, published 2010):

Tests used:
Format in all cases: cell-based, human
[1] = system: myelin reactive T cells in PBMCs; test: EAA with positivity by Variance Evaluation Method or CPM Variance Method (clinical trials); settings: clinical trial population, RR-MS or CIS subjects
Source text: The predetermined value may also be calculated using a Variance Evaluation Method as follows: • 1. EAAs may be run on a given patient population (minimum of 120 assays from 120 unique subjects) • 2. A “negative population” may be created by averaging all SI values<2.5 • 3. The Standard Deviation (SD) may be calculated for each peptide • 4. The following for each peptide may be then be calculated: • a. Average+1SD • b. Average+2SD • c. Average+3SD • 5. The following SIs may be considered above the predetermined value: • a. SI greater than or equal to the average+3SD • b. Any SI greater than or equal to 2.5
The predetermined value may also be evaluated using a Counts per Minute (CPM) Variance Method. This algorithm may set a comprehensive cutoff for all peptides within a given assay. It may be calculated as follows: • 1. EAAs may be run and the CPM for all control (media only, no antigen) wells averaged. • 2. The SD for CPM of the control wells may then be calculated. • 3. The following may then be calculated for the control wells: • a. Average+1SD • b. Average+2SD • c. Average+3SD • 4. Any peptide with an average CPM greater than or equal to the average+3SD of the control wells may be considered above the predetermined value.
Any peptide, either analyzed in an individual well or as averaged over wells run in triplicate, with an SI≧2.5, an SI≧average+3SD by the Variance Evaluation Method, or an SI≧average+3SD by the CPM variance method may be considered above the predetermined value, which may indicate a T cell(s) positive for reactivity to a peptide.
The peptides of Example 3 have been tested in 429 EAAs in clinical trials as follows. […] Pre-Vaccine EAAs have 158 positive out of 387 assays (40.8%), with Relapse Remitting MS patients (RRMS) showing 150 positive of 368 assays (40.8%), and Clinically Isolated Syndrome (CIS) patients showing 8 positive of 19 assays (42.1%).
Over the course of 6 months a study was conducted with 120 subjects meeting the criteria for the clinical trial.
The above mentioned population of subjects was evaluated by EAA using the Variance Evaluation Method and CPM Variance Method as described above, and deemed eligible for vaccine production. Of the 120 attempts to manufacture vaccine, there were 2 shipping failures (blood was not received within our stated criteria), 1 culture was lost to contamination and 5 samples arrived with low cell volume/yield. Of the remaining 112 subjects, vaccine was successfully generated in 89 subjects, with 22 still in production (98.9% of eligible samples, 92.5% of all samples completed). From this, a positive EAA was deemed predictive of the ability to manufacture a vaccine to therapeutic dose by methods disclosed herein.

[2] = system: T cell receptor variable beta chain usage (Vβ); test: TCR V beta analysis of peptide-stimulated T cell line by flow cytometry; settings: Day 9 to Day 16 in culture, FIG. 10
Description: Enrichment of T cell subsets was evaluated by analyzing the T cell receptor variable beta chain usage (Vβ). The 24 different known beta chain variable (Vβ) region families were evaluated using specific fluorescent-labeled monoclonal antibodies and flow cytometry. If a particular subset of T cells is selectively expanded by stimulation with a peptide, an increase would be detected in the percentage of cells expressing one of the V beta families as that subset expands.
[…] A T cell line was produced by stimulating the patient's PBMCs with peptide mix MBPm10, which had produced an SI of 4.6 in the original EAA for this patient. […] This mix was used to stimulate PBMCs from this patient in culture.

[3] = system: myelin reactive T cells in PBMCs; test: Epitope Analysis Assay (EAA): PBMC stimulation with myelin peptide mixes, tritiated thymidine incorporation, SI of at least 3 positive; settings: patient of Example 8, FIG. 8
Description: The SI may be calculated by comparing [^3H] thymidine incorporation of the sample in the presence of a peptide comprising a portion of an MRTC polypeptide target to that in the presence of a media only control. Briefly, separate aliquots of the sample are plated and incubated in the presence of either a peptide comprising a portion of the polypeptide or a media only control in order to stimulate reactive T cells. The cultures are pulsed with [^3H] thymidine during the last 6-18 hours of incubation. The SI is calculated as the quotient of the mean counts per minute (cpm) of the antigen aliquots/mean cpm of the control aliquots. The SI of autoreactive T cells may be increased by at least a factor of 1.3, 1.4, 1.5, 1.6, 1.7, 1.8, 1.9, 2.0, 2.1, 2.2, 2.3, 2.4, 2.5, 2.6, 2.7. 2.8, 2.9, 3.0, 3.1, 3.2, 3.3, 3.4, 3.5, 3.6, 3.7, 3.8, 3.9, or 4.0 compared to a control.
The peptides in Example 2 were tested in an in vitro PBMC stimulation assay to identify myelin reactive T cells in a patient's blood. Peripheral blood mononuclear cells (PBMCs) were separated from whole blood, washed, counted and plated at 250,000 cells per well in a total of four 96-well plates. Myelin peptide mixes of two overlapping 16-mer peptides were added to triplicate wells of PBMCs with triplicate media only control wells included on each plate and then incubated. After two days of incubation, 20 U/ml of interleukin-2 (IL-2) was added. On the fifth day, the plates were labeled with a radioisotope (tritiated thymidine) and harvested 6 hours later. In this assay, the cells that incorporate tritiated thymidine are representative of T cells being activated and induced to proliferate by the T cell receptor-peptide-MHC complexes. T cells incorporating comparatively more tritiated thymidine than control and experimental cells are more highly activated T cells and are proliferating more rapidly.
Stimulation Indices (SI) were determined for each peptide mix by dividing the mean radiolabel counts per minute (CPM) of the peptide stimulated wells by the mean CPM of the media only control wells averaged across all four plates. An SI of at least 3 was considered positive. FIG. 1 is an example of EAA from one MS patient. Seven of the peptide mixtures were slightly reactive, with the MOGm15 stimulated wells being very reactive. FIGS. 2-4 show the frequency of reactivity to the peptide mixes in 48 patients.

PBMCs / T cells = test: Growth analysis of T cell lines stimulated with EAA-selected peptide mixes; settings: from 15 million PBMCs, in 20 days, 3 stimulations
Description: Patient-specific peptides identified by EAA were tested to determine whether they could be used to produce and expand myelin-reactive T-cells for use in a vaccine. A 500 ml bag of blood was obtained from the patient to set up vaccine production cultures. Bulk cultures were set up in AIM V medium along with the optimized peptides. After 48 hours of incubation, rIL-2 was added at 20 U/ml. Seven days later, the cultures were re-stimulated with PBMCs and peptide. The media was changed to 2% AB serum with 100 U/ml rIL2 in X Vivo 15 medium. The cultures were fed and split every 1-4 days as necessary. After an additional seven days, the cultures were once again stimulated with APCs and peptides. The cultures were continued to be fed and split every 1-4 days as necessary. After an additional 7-14 days, the cultures had expanded to at least 100×10^6 cells. The cells were divided into aliquots of 10×10^6 cells and frozen.
The ability of stimulation with the EAA-selected peptides to more rapidly expand the stimulated the T cells were tested. The cell growth curves were analyzed for two different stimulatory peptide mixes. The EAA CPM data shown in FIG. 8 show a strongly reactive mix in MBPm19 for a patient with an SI of 4.7. […] These two peptides mixes were then used to stimulate PBMCs from this patient to produce T cell lines. […]

| Substance | # of Subjects (frequency of identification) [1] | % of Subjects (frequency of identification) [1] [%] | TCR V beta focusing [2] | Stimulation Index (SI) [3] | T cells after expansion (PBMCs / T cells) [million T cells] |
| --- | --- | --- | --- | --- | --- |
| PLPm27: mix of PLP 53 and PLP 54 (chain 1 VLPWNAFPGKVCGSNL; chain 2 NAFPGKVCGSNLLSIC) | 6 | 5.0 | V beta chain 5-5 is expanding | – | – |
| PLPm33: mix of PLP 65 and PLP 66 (chain 1 FMIAATYNFAVLKLMG; chain 2 ATYNFAVLKLMGRGTK) | 11 | 9.2 | – | 17.9 | 200 |
